Entries after “also recorded” stand apart in the source; their conditions may differ. Where no end group is shown, it is not given here. The star is where a group is joined. Myristoyl = CCCCCCCCCCCCCC(=O)*
Target: T1, KIBRA-PKMζ interaction (Homo sapiens, UniProt Q05513)
T1 construct: expressed in transfected cells; host or cells: HEK293T
T1 sequence (Q05513 1-409 isoform Q05513-2): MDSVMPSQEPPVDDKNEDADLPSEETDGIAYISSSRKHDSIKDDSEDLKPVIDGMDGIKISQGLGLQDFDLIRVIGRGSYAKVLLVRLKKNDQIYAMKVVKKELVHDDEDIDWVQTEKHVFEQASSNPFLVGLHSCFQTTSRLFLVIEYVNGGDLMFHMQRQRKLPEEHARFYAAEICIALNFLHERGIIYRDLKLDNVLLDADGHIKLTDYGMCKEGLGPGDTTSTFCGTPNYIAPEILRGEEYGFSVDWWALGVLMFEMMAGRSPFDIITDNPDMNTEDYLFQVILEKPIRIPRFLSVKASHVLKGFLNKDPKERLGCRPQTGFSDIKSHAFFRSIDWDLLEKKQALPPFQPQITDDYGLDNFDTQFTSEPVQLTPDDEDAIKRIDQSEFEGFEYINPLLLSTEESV
Test: BiFC (split-Venus) assay of KIBRA-PKMζ interaction in transfected HEK293T cells
Assay type: cell-based
Conditions: for effect on KIBRA-PKMζ interaction/dimerization (BiFC): 10 μM
Experimental: KIBRA-PKMζ BiFC was performed as previously described (28), using pVen1-FLAG-KIBRA and pVen2-HA-PKMζ, in which PKMζ was cloned between EcoR1 and BamH1 sites. The constructs pVen1 and pVen2 encode the N-terminus (amino acids 1-154) and C-terminus (amino acids 155-238) of the Venus protein, respectively, and the Venus fragments were on the N-terminal of the fusion proteins. pVen2-HA-PKMζ[PKCι/λ-P291Q;F297S] was generated by site-directed mutagenesis using forward-cctggagAagcAAatceggatcccccggtCcctgtccgte and reverse-gacggacaggGaccgggggatccggatTTgctTctccagg primers and the QuickChange II XL Site-Directed Mutagenesis Kit (Agilent Technologies), following manufacturer's instructions. Additional pVen2-HA-PKC isoforms and pVen2-HA-CaMKIIα in the pVen2-HA vector were generated by cloning the N-terminus of the coding sequence of each kinase (table S1) to obtain an in-frame fusion at the C-terminus of the pVen2-HA. Human versions of KIBRA and kinases were used, and all PCR amplified sequences and constructs were verified by DNA sequencing.
HEK293T cells were cultured in Dulbecco's Modified Eagle's Medium supplemented with 10% heat-inactivated fetal bovine serum, 100 U/ml penicillin, […] streptomycin, 2 mM glutamine, and 10 mM HEPES in a T75 tissue culture flask with canted neck and ventilated cap. Twenty-four hours prior to transfection, 1×10^5 HEK293T cells in 1 ml of media were plated on poly-D-lysine-treated coverslips in 24-well plates. One hour prior to transfection, 0.5 ml of the media was removed from each well, and ζ-stat or K-ZAP was added to the media that had been removed. The remaining media in each well was then discarded and substituted with the 0.5 ml pre-conditioned media containing ζ-stat or K-ZAP at designated concentrations. For transfection a total of 50 ng of DNA was delivered to each well using Lipofectamine 3000 (Invitrogen) and OptiMEM 1× reduced serum medium (Invitrogen) at a plasmid-to-plasmid ratio of 1:1. The amount of transfected DNA was optimized to produce relatively low concentrations of proteins during overexpression. […]

Row | Compound | effect on KIBRA-PKMζ interaction/dimerization (BiFC) (listed as z-stat) | IC50 (dose-response curve, n's=4, read-out: IC50 for inhibition of KIBRA-PKMζ interaction (BiFC)) [nM] | effect on KIBRA-PKMζ interaction/dimerization (BiFC)
1 | O=S(=O)(O)c1cc(O)c2c(S(=O)(=O)O)cc(S(=O)(=O)O)cc2c1 [ζ-stat, 1-naphthol-3,6,8-trisulphonic acid] | inhibits KIBRA interaction with PKMz; also recorded: decreases BIFC | ~1000 | 
2 | myr-N-FVRNSLERRSVRMKRPS-C (Myristoyl-FVRNSLERRSVRMKRPS) [K-ZAP] |  |  | inhibits PKMz-KIBRA dimerization

From patent publication US20250154212A1, “METHOD OF DISRUPTING MEMORY AND LIPOPEPTIDE FOR USE IN SUCH METHOD” (The Research Foundation for The State University of New York, priority 2023, published 2025)
